From patent US12570655B2, “Cysteine covalent modifiers of AKT1 and uses thereof” (Terremoto Biosciences, Inc., priority 2023, dated 2026)
Read-outs that look alike come from different tables or passages of the source.

How the values were obtained:
Format in all cases: cell-based
[1] = target: T1, AKT2 (Homo sapiens, UniProt P31751); assay: Live cell AKT2 target engagement by NanoBRET competitive probe displacement; settings: HEK293 cells transfected with kinase-NanoLuciferase fusion, 2 h at 37° C.
T1 construct: expressed in transfected cells; host or cells: HEK293
Outline: (§1)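 IC50 fitted (Hill, log inhibitor vs response) to BRET signal, E600/E460 ratio, measured with extracellular NanoLuc inhibitor present. Intact transfected HEK293 cells bearing NanoLuc-tagged kinase were co-incubated 2 h, 37 °C, with compound dilution series and ~EC50 ATP-competitive fluorescent tracer.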

[2] = tested on: LAPC4 prostate cancer cells; assay: Antiproliferative effects in LAPC4 cells (CellTiter Glo); settings: LAPC4 cells (AKT1 E17K allele), read-out: LAPC4 proliferation IC50
Outline: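 Growth inhibition was measured by CellTiter Glo ATP luminescence after 72 h compound exposure of 1,000 seeded cells/well. The cells were AKT1 E17K-expressing LAPC4 prostate cancer cells maintained in IMDM plus 12% FBS. IC50 values came from Hill-equation fits.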

[3] = target: T2, AKT1 WT (Homo sapiens, UniProt P31749); assay: Live cell AKT1 WT target engagement by NanoBRET competitive probe displacement; settings: HEK293 cells transfected with kinase-NanoLuciferase fusion, 2 h at 37° C.
T2 construct: expressed in transfected cells; host or cells: HEK293
Outline: as §1

[4] = target: T3, AKT1 E17K (Homo sapiens, UniProt P31749, E17K); assay: Live cell AKT1 E17K target engagement by NanoBRET competitive probe displacement; settings: HEK293 cells transfected with kinase-NanoLuciferase fusion, 2 h at 37° C.
T3 construct: expressed in transfected cells; host or cells: HEK293
Outline: as §1

T2 sequence (P31749 whole entry, the tested form may be a part): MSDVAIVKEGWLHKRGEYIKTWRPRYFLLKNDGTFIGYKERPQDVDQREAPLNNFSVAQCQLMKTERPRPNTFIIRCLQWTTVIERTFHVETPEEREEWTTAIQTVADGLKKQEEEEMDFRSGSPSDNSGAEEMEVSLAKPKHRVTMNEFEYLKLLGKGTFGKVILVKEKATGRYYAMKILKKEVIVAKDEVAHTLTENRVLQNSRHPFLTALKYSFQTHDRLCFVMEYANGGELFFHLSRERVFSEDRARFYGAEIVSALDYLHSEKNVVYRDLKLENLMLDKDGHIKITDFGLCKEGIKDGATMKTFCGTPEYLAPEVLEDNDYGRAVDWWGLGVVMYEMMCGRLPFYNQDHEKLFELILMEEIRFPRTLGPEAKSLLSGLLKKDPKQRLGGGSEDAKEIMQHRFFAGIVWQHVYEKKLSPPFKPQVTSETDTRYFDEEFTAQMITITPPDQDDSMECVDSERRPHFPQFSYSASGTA
T3 sequence (P31749 whole entry E17K, the tested form may be a part): as the sequence (P31749 whole entry, the tested form may be a part) above, with E17K counted along it
T1 sequence (P31751 whole entry, the tested form may be a part): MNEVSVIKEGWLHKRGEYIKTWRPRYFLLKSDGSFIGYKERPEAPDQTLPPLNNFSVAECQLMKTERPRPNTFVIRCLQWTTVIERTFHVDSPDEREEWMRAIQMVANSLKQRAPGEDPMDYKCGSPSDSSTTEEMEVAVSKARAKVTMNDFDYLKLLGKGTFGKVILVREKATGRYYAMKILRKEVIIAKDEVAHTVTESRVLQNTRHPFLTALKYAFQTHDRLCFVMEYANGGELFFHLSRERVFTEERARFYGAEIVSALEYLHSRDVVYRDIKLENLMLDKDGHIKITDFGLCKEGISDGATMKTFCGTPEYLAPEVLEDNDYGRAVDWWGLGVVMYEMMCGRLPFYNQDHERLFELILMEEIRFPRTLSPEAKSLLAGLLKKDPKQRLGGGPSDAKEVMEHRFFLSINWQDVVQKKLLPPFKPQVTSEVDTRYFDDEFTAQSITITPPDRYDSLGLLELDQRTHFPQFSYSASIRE

| Compound | IC50 [1] | IC50 ([2]; 72 h) | IC50 [3] | IC50 [4] | IC50 ([2]; Homo sapiens, LAPC4, 72 h) |
| --- | --- | --- | --- | --- | --- |
| C=CC(=O)N1CCC(N[C@@H]2c3ccc(-n4c(-c5cccnc5N)nc5ccc(-n6ccc(F)n6)nc54)cc3CC2F)C[C@@H]1C (single isomer, unassigned) [Example 270, 1-((2S,4*)-4-(((1R,2*)-5-(2-(2-aminopyridin-3-yl)-5-(3-fluoro-1H-pyrazol-1-yl)-3H-imidazo[4,5-b]pyridin-3-yl)-2-fluoro-2,3-dihydro-1H-inden-1-yl)amino)-2-methylpiperidin-1-yl)prop-2-en-1-one] | 21 nM | 76.3 nM | 162 nM | 7.21 nM | – |
| C=CC(=O)N1CCC(N[C@@H]2c3ccc(-n4c(-c5cccnc5N)nc5ccc(-n6cccn6)nc54)cc3C[C@H]2F)CC1 [Example 75, 1-(4-(((1R,2R)-5-(2-(2-aminopyridin-3-yl)-5-(1H-pyrazol-1-yl)-3H-imidazo[4,5-b]pyridin-3-yl)-2-fluoro-2,3-dihydro-1H-inden-1-yl)amino)piperidin-1-yl)prop-2-en-1-one] | 511 nM | – | 20 nM | 35.9 nM | 287 nM |
| C=CC(=O)N1CCC(N[C@@H]2c3ccc(-n4c(-c5cccnc5N)nc5ccc(-c6ccn(C(F)F)n6)nc54)cc3CC2F)CC1 (stereo partly drawn) [Example 310, 1-(4-(((1R,2*)-5-(2-(2-aminopyridin-3-yl)-5-(1-(difluoromethyl)-1H-pyrazol-3-yl)-3H-imidazo[4,5-b]pyridin-3-yl)-2-fluoro-2,3-dihydro-1H-inden-1-yl)amino)piperidin-1-yl)prop-2-en-1-one] | 277 nM | 553 nM | 1480 nM | 34.5 nM | – |
| C=CC(=O)N1CCC(N[C@H]2CCc3cc(-n4c(-c5cccnc5N)nc5ccc(-c6ccccn6)nc54)ccc32)CC1 [Example 207, (S)-1-(4-((5-(2-(2-aminopyridin-3-yl)-5-(pyridin-2-yl)-3H-imidazo[4,5-b]pyridin-3-yl)-2,3-dihydro-1H-inden-1-yl)amino)piperidin-1-yl)prop-2-en-1-one] | 35.2 nM | – | 48.8 nM | 7.07 nM | 114 nM |
| C=CC(=O)N1CCC(N[C@@H]2c3ccc(-n4c(-c5cccnc5N)nc5ccc(-n6ccc(F)n6)nc54)cc3CC2F)CC1 (single isomer, unassigned) [Example 236, 1-(4-(((1R,2*)-5-(2-(2-aminopyridin-3-yl)-5-(3-fluoro-1H-pyrazol-1-yl)-3H-imidazo[4,5-b]pyridin-3-yl)-2-fluoro-2,3-dihydro-1H-inden-1-yl)amino)piperidin-1-yl)prop-2-en-1-one] | 87.2 nM | – | 778 nM | 12.4 nM | 300 nM |
| C=CC(=O)N1CCN(NC2CCc3cc(-n4c(-c5cccnc5N)nc5ccc(-n6cccn6)nc54)ccc32)CC1 (racemic) [Example 77, 1-[4-({5-[2-(2-aminopyridin-3-yl)-5-(pyrazol-1-yl)imidazo[4,5-b]pyridin-3-yl]-2,3-dihydro-1H-inden-1-yl}amino)piperazin-1-yl]prop-2-en-1-one] | 346 nM | – | 17.9 nM | 86.3 nM | 247 nM |
| C=CC(=O)N1CCC(N(CC2COC2)[C@H]2CCc3cc(-n4c(-c5cccnc5N)nc5ccc(-n6cccn6)nc54)ccc32)CC1 [Example 161, 1-(4-{[(1S)-5-[2-(2-aminopyridin-3-yl)-5-(pyrazol-1-yl)imidazo[4,5-b]pyridin-3-yl]-2,3-dihydro-1H-inden-1-yl](oxetan-3-ylmethyl)amino}piperidin-1-yl)prop-2-en-1-one] | 198 nM | – | 18.3 nM | 110 nM | 100 nM |
| C=C(F)C(=O)Nc1ccccc1C(=O)N[C@H]1CCc2cc(-n3c(-c4cccnc4N)nc4ccc(-n5nccn5)nc43)ccc21 [Example 23, (S)-N-(5-(2-(2-aminopyridin-3-yl)-5-(2H-1,2,3-triazol-2-yl)-3H-imidazo[4,5-b]pyridin-3-yl)-2,3-dihydro-1H-inden-1-yl)-2-(2-fluoroacrylamido)benzamide] | 2250 nM | – | 50.1 nM | 135 nM | 426 nM |
| CC(C)=CC(=O)N1CCC(N[C@H]2CCc3cc(-n4c(-c5cccnc5N)nc5ccc(-n6cccn6)nc54)ccc32)CC1 [Example 185, 1-(4-{[(1S)-5-[2-(2-aminopyridin-3-yl)-5-(pyrazol-1-yl)imidazo[4,5-b]pyridin-3-yl]-2,3-dihydro-1H-inden-1-yl]amino}piperidin-1-yl)-3-methylbut-2-en-1-one] | 912 nM | – | 2170 nM | 53.2 nM | 4130 nM |
| C=CC(=O)N1CCC(CN[C@H]2CCc3cc(-n4c(-c5cccnc5N)nc5ccc(-n6cccn6)nc54)ccc32)CC1 [Example 68, 1-[4-({[(1S)-5-[2-(2-aminopyridin-3-yl)-5-(pyrazol-1-yl)imidazo[4,5-b]pyridin-3-yl]-2,3-dihydro-1H-inden-1-yl]amino}methyl)piperidin-1-yl]prop-2-en-1-one] | 74.2 nM | – | 9.84 nM | 21.9 nM | 75.6 nM |
| C=CC(=O)N1CCC(N[C@H]2CC(O)c3cc(-n4c(-c5cccnc5N)nc5ccc(-n6cccn6)nc54)ccc32)CC1 (single isomer, unassigned) [Example 219, 1-(4-(((1S,3*)-5-(2-(2-aminopyridin-3-yl)-5-(1H-pyrazol-1-yl)-3H-imidazo[4,5-b]pyridin-3-yl)-3-hydroxy-2,3-dihydro-1H-inden-1-yl)amino)piperidin-1-yl)prop-2-en-1-one] | 95.7 nM | 77.1 nM | 279 nM | 45.8 nM | – |
| C=CC(=O)N1CC(N2CCC(N[C@H]3CCc4cc(-n5c(-c6cccnc6N)nc6ccc(-n7cccn7)nc65)ccc43)CC2)C1 [Example 158, (S)-1-(3-(4-((5-(2-(2-aminopyridin-3-yl)-5-(1H-pyrazol-1-yl)-3H-imidazo[4,5-b]pyridin-3-yl)-2,3-dihydro-1H-inden-1-yl)amino)piperidin-1-yl)azetidin-1-yl)prop-2-en-1-one] | 1870 nM | – | 72.6 nM | 358 nM | 1090 nM |
| C=CC(=O)N1CCC(N[C@H]2CCc3cc(-n4c(-c5cccnc5N)nc5c(OC)cc(-n6cccn6)nc54)ccc32)CC1 [Example 337, 1-(4-{[(1S)-5-[2-(2-aminopyridin-3-yl)-7-methoxy-5-(pyrazol-1-yl)imidazo[4,5-b]pyridin-3-yl]-2,3-dihydro-1H-inden-1-yl]amino}piperidin-1-yl)prop-2-en-1-one] | 29.4 nM | – | 30.3 nM | 6.33 nM | 99.5 nM |
| C=CC(=O)NC1CCC(N[C@H]2CCc3cc(-n4c(-c5cccnc5N)nc5ccc(-n6cccn6)nc54)ccc32)CC1 (single isomer, unassigned) [Example 48, N-((1*,4*)-4-(((S)-5-(2-(2-aminopyridin-3-yl)-5-(1H-pyrazol-1-yl)-3H-imidazo[4,5-b]pyridin-3-yl)-2,3-dihydro-1H-inden-1-yl)amino)cyclohexyl)acrylamide] | 1280 nM | 1400 nM | 111 nM | 799 nM | – |
| C=CC(=O)N1CCC(N[C@H]2CCc3cc(-n4c(-c5ccccc5F)nc5ccc(-n6cccn6)nc54)ccc32)CC1 [Example 241, 1-(4-{[(1S)-5-[2-(2-fluorophenyl)-5-(pyrazol-1-yl)imidazo[4,5-b]pyridin-3-yl]-2,3-dihydro-1H-inden-1-yl]amino}piperidin-1-yl)prop-2-en-1-one] | 18.8 nM | – | 205 nM | 5.56 nM | 77.3 nM |
